# Patent publication US11028061B2, “Modulators of myocyte lipid accumulation and insulin resistance and methods of use thereof” (Sanford Burnham Prebys Medical Discovery Institute, priority 2015, dated 2021)
# Legend:
# [1] = tested on: primary murine skeletal myocytes; assay: TAG accumulation in primary murine skeletal myocytes; assay type: cell-based; conditions: Mus musculus; primary murine skeletal myocytes; read-out: Activity Score (IC50), triacylglyceride (TAG) accumulation
# human skeletal myotubes = assay: Triglyceride accumulation in oleate-loaded human skeletal myotubes; assay type: cell-based
# Procedure: Human skeletal myotubes were differentiated for 8 days. On day 7, 100 μM of oleic acid complexed to fatty acid-free BSA was added to the cells with the indicated concentration of test compound for 24 hours. Following incubation with oleate and compound, cells were formaldehyde fixed and stained with AdipoRed™ (Lonza). Triglyceride accumulation was measured using signal intensity at excitation 540/emission 590 nm (Bio-Tek Instruments, Inc.). Dose response curves were generated in Prism 6 (GraphPad Software). EC50 values were calculated using non-linear regression analysis. For biochemical measurement of triglyceride, human skeletal myotubes were incubated with oleate-BSA and test compound as described above. After 24 hour incubation, cells were collected with a lysis buffer containing 0.1% IGEPAL CA-630 (Sigma-Aldrich) in PBS. The harvested cells were sonicated for 5 seconds and then centrifuged at 10,000×g for 10 minutes at 4° C. The supernatant was removed and stored on ice. TAG levels were quantified using Infinity™ Triglycerides Liquid Stable Reagent (Thermo Scientific), following the manufacturer's instructions for colorimetric assay.
# Student's t-test, Mann Whitney test, one-way ANOVA with Bonferroni post hoc test, or two-way ANOVA with Tukey post hoc test was performed to determine statistical significance as indicated. […]
# [2] = Plasma concentration in high fat diet mice; assay type: in vivo; conditions: male, C57BL/6J, mouse, sc, 4 hours following the final dose, 50 mg/kg s.c. once daily for 7 days
# Procedure: (§1) All animal studies were performed in accordance with the National Institute of Health guidelines for humane treatment of animals and approved by the IACUC of the Sanford Burnham Prebys Medical Discovery Institute at Lake Nona. Six week old male C57BL/6J mice were obtained from Jackson Laboratory (stock number 000664) and acclimated for 1 week prior to study. Mice were maintained on standard chow or a 60% high fat diet (Research Diets, USA) for 8 weeks. SBI-993 was dissolved in a vehicle containing 2% DMSO, 2% Tween-80, and 96% water (pH9.0). Seven weeks after HFD feeding, mice were subcutaneously injected with SBI-993 (50 mg/kg mouse body weight) once daily for 7 days. Each group contains 6-10 mice and three independent experiments were conducted.
# (§2) To determine if the effects conferred by SBI-477 observed in myocytes in culture are relevant in vivo, studies were conducted in C57BL/6 mice with diet-induced obesity. […] Mice were fed a 60% high fat diet (HFD) for 8 weeks resulting in significant weight gain (FIG. 6I). During the final week of HFD feeding, SBI-993 or vehicle control was administered as a once daily dose (50 mg/kg s.c.) for 7 days.
# ARRDC4 = ARRDC4 expression by quantitative RT-PCR in human myotubes; assay type: cell-based; conditions: 24 hours
# Procedure: FIGS. 4A-C show downregulation of TXNIP and ARRDC4 expression by SBI-477. (FIG. 4A) TXNIP and ARRDC4 mRNA levels as determined by quantitative RT-PCR in human myotubes treated with SBI-477 (10 μM) or DGAT1 inhibitor (DGATi, […]) for 24 hours in the absence or presence of 100 μM oleate (n=4). Expression is shown relative to vehicle/BSA treatment. (FIG. 4B) TXNIP gene expression following exposure to a dose range of SBI-477 for 24 hours (n=4). (FIG. 4C) Left, Effect of SBI-477 on TXNIP protein levels as determined by western blot analysis by SBI-477. Right, Quantitation of the TXNIP western blot data is shown (n=5). *p<0.05 vs. Vehicle/BSA control, †p<0.05 vs. Vehicle/oleate by one-way ANOVA with Bonferroni post hoc test. The data are shown as mean±SD.
# Total RNA was isolated using RNeasy Mini Kit (Qiagen) according to the manufacturer's instructions. cDNA was synthesized using the Affinity Script cDNA Synthesis Kit (Stratagene) with 0.5 μg of total RNA. PCR reactions were performed in triplicate […] Roche LightCycler® 480 Instrument II) with specific primers for each gene.
# [3] = tested on: C57BL/6 mice with diet-induced obesity; assay: Diet-induced obesity (60% high fat diet) mouse study; assay type: in vivo; conditions: HFD mice
# Procedure: Following a 5 hour fast, a blood sample was obtained from the tail tip for the measurement of baseline glucose using a hand-held glucometer (Accu-Chek Aviva Plus, Roche). A bolus of glucose (1 g/kg) was then administered via i.p. injection. Blood samples were obtained at 5, 15, 30, 60 and 90 minutes following the glucose bolus for measurement of blood glucose. For detection of insulin signaling, mice were fasted for 5 hours on the last day of the study. Gastrocnemius skeletal muscle and liver tissues were harvested 10 minutes after an acute insulin administration (1.5 U/kg, i.p.) and immediately snap frozen. The tissue samples were homogenized in RIPA buffer containing 1% NP-40, 5 mM Na4P2O7, 1 mM EDTA, 20 mM NaF, 2 mM Na3VO4, 1× Complete protease inhibitor (Roche) and 1 mM phenylmethylsulfonyl fluoride. Western blot analysis for levels of phospho-Akt (S473) and total Akt was then performed.
# as §1, §2
# [4] = muscle and liver, 50 mg/kg s.c. 7 days
structure (smiles),measurement,setting,value
"COc1ccc(-c2csc(NC(=O)c3ccc(NCC(=O)N4CCOCC4)cc3)n2)cc1 [Cpd. 66, N-(4-(4-methoxyphenyl)thiazol-2-yl)-4-((2-morpholino-2-oxoethyl)amino)benzamide]",IC50,[1],< 1000 nM
same,"Potency compared with SBI-477 (inhibition of triglyceride accumulation, FIG. 6H)",human skeletal myotubes,improved potency
same,concentration at 4 h,[2],4.97 ± 0.97 µM
same,ARRDC4 expression,ARRDC4,to a similar degree as SBI-477
same,"Glucose tolerance (1 g/kg glucose, i.p.)",[3]; 50 mg/kg s.c. 7 days,improved glucose tolerance
same,Hepatic steatosis,[3]; 50 mg/kg s.c. 7 days,substantially ameliorated
same,TAG levels in skeletal muscle,[3]; 50 mg/kg s.c. 7 days,significantly reduced
same,Body weight compared to vehicle,[3]; 50 mg/kg s.c. once daily for 7 days,small but significant reduction
same,Food intake,[3]; data not shown,not due to reduced food intake
same,Occupation of ChREBP and MondoA on Txnip and Pklr gene promoters (ChIP),"[3]; liver, 1 week administration",reduced in liver
same,Insulin signaling (phosphorylated Akt S473) after acute insulin challenge,[3]; muscle and liver,improved insulin signaling
same,Expression of TAG synthesis and lipogenic genes,[3]; [4],reduced the expression
same,Txnip and Arrdc4 expression,[3]; [4],reduced Txnip and Arrdc4 expression
"CNC(=O)CNc1ccc(C(=O)Nc2nc(-c3ccc(OC)cc3Cl)cs2)cc1 [compound 71, N-(4-(2-chloro-4-methoxyphenyl)thiazol-2-yl)-4-((2-(methylamino)-2-oxoethyl)amino)benzamide]",IC50,[1],< 1000 nM
"COc1ccc(-c2csc(NC(=O)c3ccc(NCC(=O)N(C)C)cc3)n2)c(Cl)c1 [compound 72, N-(4-(2-chloro-4-methoxyphenyl)thiazol-2-yl)-4-((2-(dimethylamino)-2-oxoethyl)amino)benzamide]",IC50,[1],< 1000 nM
"COCCNC(=O)CNc1ccc(C(=O)Nc2nc(-c3ccc(OC)cc3Cl)cs2)cc1 [compound 73, N-(4-(2-chloro-4-methoxyphenyl)thiazol-2-yl)-4-((2-((2-methoxyethyl)amino)-2-oxoethyl)amino)benzamide]",IC50,[1],< 1000 nM
"COc1ccc(-c2csc(NC(=O)c3ccc(N)c(OC)c3)n2)cc1 [compound 77, 4-amino-3-methoxy-N-(4-(4-methoxyphenyl)thiazol-2-yl)benzamide]",IC50,[1],1000 to 10000 nM
"COc1cc(C(=O)Nc2ncc(-c3ccccc3)s2)ccc1OCC(=O)N1CCOCC1 [compound 79, 3-methoxy-4-(2-morpholino-2-oxoethoxy)-N-(5-phenylthiazol-2-yl)benzamide]",IC50,[1],> 10000 nM
"COc1ccc(-c2cnc(NC(=O)c3ccc(OCC(=O)N4CCOCC4)c(OC)c3)s2)cc1 [compound 80, 3-methoxy-N-(5-(4-methoxyphenyl)thiazol-2-yl)-4-(2-morpholino-2-oxoethoxy)benzamide]",IC50,[1],> 10000 nM
